Reference: US20260002109A1, “SYSTEMS AND PROCESSES FOR SKIN TISSUE GROWTH AND ANALYSIS” (Outer Biosciences, Inc., priority 2023, published 2026)

Legend:
[1] = test system: normal skin tissue in an insert; test: Skin irritation: histopathological scoring of H&E stained skin tissue; format: cell-based; conditions: 2% for 24 hours, topical; compared to the control group
Method: (§1) The purpose of this example is to test and replicate dynamic changes in skin across various types of clinically relevant stimuli, including skin irritations, intradermal injection. cosmetic product treatment, and antioxidant defense. Approximations of skin irritation evaluated in this manner include topical chemical treatment 261, burn treatment 262, and UV treatment 263, as illustrated in FIGS. 26A-26C, respectively. Chemical irritation was approximated through application of 2% SDS for 24 hours, burns were approximated through 100° C, contact with a heated metal rod for 45 seconds, and UV irritation was approximated via UVA and UV application for 30 minutes. […] Skin tissues were evaluated and scored using the parameters in Table 9 as provided above. Include protocol, histological parameters, histology staining and scoring results, immune and inflammatory responses, antioxidant defense assessment, etc.
FIGS. 28A-28D provide H&E stained tissues for a first selection of untreated. chemical-treated, burn-treated, and UV-treated skin tissue samples, respectively. A pathological analysis of the extent of damage was undertaken and is shown in FIGS. 29A-29C to evaluate epidermal damage, eczematous epidermis, and epidermis thickness, respectively, after application of damage stimuli. […] UV irradiation caused epidermal thinning compared to the control group.

skin tissues [2] = test: Skin irritation: lactate dehydrogenase (LDH) release; format: cell-based; conditions: 2% SDS for 24 hours; compared to untreated samples
Method: A second selection of samples were cultured and subjected to irritating stimuli, whereby a chemical stimulus group was subjected to 2% SDS for 24 hours, a burn group was subjected to 100° C, contact for 90 seconds, and a UV irritation group was subjected to UV-B for 30 minutes. FIGS. 30A-30D illustrate insert images after staining with Masson's Trichrome for untreated, chemical-treated, burn-treated, and UV-treated skin tissues, respectively. FIG. 31A provides an analysis of collagen deposition using histopathological scoring to determine the effects of damage stimuli on each group. As a result of this analysis, both burn and UV irradiation groups were discovered to have reduced collagen deposition compared to the untreated group. […] FIG. 31B provides an analysis of lactate dehydrogenase (LDH) release, which is widely used as a marker for assessing cell death and toxicity. The analysis indicated a significant increase of LDH release from all treatment conditions compared to untreated samples.

[3] = test system: barrier function of the skin; test: Transepidermal water loss (TEWL) measurement on skin biopsies in inserts; format: cell-based; conditions: biopsy edges sealed with Loctite super glue
From the text: The purpose of this example is to incorporate sealed sensors into an insert. Sealing the biopsy edge using Loctite super glue, as shown in the photograph in FIG. 18A and the histology stain image in FIG. 18B, allowed the measurement of changes in barrier function with sensitivity, as well as preventing leakage of topically-applied substances into the dermis through the edge of the biopsy as well as allowing for the precise measurement of changes in the barrier function of the skin using clinical sensors.
FIGS. 19A-19B illustrate measurements of transepidermal water loss (TEWL) in model skin that were either not sealed or sealed using Loctite super glue, respectively. TEWL measurements were taken using a Courage+Khazaka Multi Probe Adapter MPA 10. […] FIG. 20 show a comparison in TEWL measurements of the effects of a barrier enhancer (Niacinamide) and a barrier disrupter (SDS) on skin sealed with Loctite super glue over a six-day period.

skin tissues [4] = test: Skin irritation: collagen deposition by histopathological scoring (Masson's Trichrome); format: cell-based; conditions: 2% for 24 hours; compared to the untreated group
Method: as §1
A second selection of samples were cultured and subjected to irritating stimuli, whereby a chemical stimulus group was subjected to 2% SDS for 24 hours, a burn group was subjected to 100° C, contact for 90 seconds, and a UV irritation group was subjected to UV-B for 30 minutes. FIGS. 30A-30D illustrate insert images after staining with Masson's Trichrome for untreated, chemical-treated, burn-treated, and UV-treated skin tissues, respectively. […]

skin tissue = test: Tissue longevity analysis: media conditions judged by histology (epidermis and dermis structure) and culture survival; format: cell-based, human
From the text: Table 5 provides a plurality of media mixtures applied to skin samples to assess the effects of various testing conditions on the skin tissue.

Compound | eczematous epidermis [1] | epidermal damage [1] | thickness of epidermis [1] | LDH release (skin tissues [2]) | barrier function by TEWL [3] | collagen deposition (skin tissues [4]) | beneficial effect on skin samples (skin tissue; 0.1 mM on the surface of skin samples) | beneficial effect on skin samples (skin tissue; 0.5 mM and 1 mM in media)
CCCCCCCCCCCCOS(=O)(=O)[O-].[Na+] [SDS] | moderate eczematous (atopic) epidermis | significant epidermal as evidenced by widespread dyskeratotic cells | pathological epidermal thickening (acanthosis) | highest LDH release | reduction in the barrier function | No significant change in collagen deposition | – | –
[Ca+2].[Cl-].[Cl-] [calcium chloride] | – | – | – | – | – | – | neither testing condition was observed to have any beneficial effect | neither testing condition was observed to have any beneficial effect
